Columns and labels:
Format in all cases: in vivo
Wistar albino mice = test: Analgesic activity, tail-flick technique; conditions: for Percent analgesic activity: mean ± SD (n = 6); for Analgesic activity (in words): tail-flick, structure-activity comparison within the series / vs diclofenac sodium
Method: (§1) The synthesized compounds were evaluated for analgesic, anti-inflammatory, and ulcerogenic index. […] The test compounds and the standard drugs were administered in the form of a suspension (1% carboxymethyl cellulose as a vehicle) by oral route for analgesic and anti-inflammatory but for ulcerogenicity studies by intraperitoneally as suspension in 10% v/v Tween-20. Each group consisted of six animals. The animals were procured from the C. L. Baid Metha College of pharmacy, Chennai, and were maintained in colony cages at 25 ±2°C, relative humidity of 45-55%, under a 12-h light and dark cycle; they were fed standard animal feed. All the animals were acclimatized for a week before use. The Institutional Animal Ethics Committee approved the protocol adopted for the experimentation of animals.
The analgesic activity was performed by tail-flick technique using Wistar albino mice (25-35 g) of either sex selected by the random sampling technique.[1314] Diclofenac sodium at a dose level of 10 mg/kg and 20 mg/kg was administered orally as reference drug for comparison. The test compounds at two dose levels (10, 20 mg/kg) were administered orally. The reaction time was recorded at 30 min, 1, 2, and 3 h after the treatment, and cut-off time was 10 s. The percent analgesic activity (PAA) was calculated by the following formula, where T1 is the reaction time (s) before treatment, and T2 is the reaction time (s) after treatment.

[1] = system: carrageenan-induced paw edema in rats; test: Anti-inflammatory activity, carrageenan-induced paw edema test; conditions: for Percent anti-inflammatory activity (percent inhibition of paw edema): mean ± SD (n = 6); for Anti-inflammatory activity compared to reference standard diclofenac sodium (in words): carrageenan-induced paw edema in rats
Method: as §1
Anti-inflammatory activity was evaluated by carrageenan-induced paw edema test in rats.[15] Diclofenac sodium 10, 20 mg/kg was administered as a standard drug for comparison. The test compounds were administered at two dose levels (10 mg/kg, 20 mg/kg). The paw volumes were measured using the mercury displacement technique with the help of a plethysmograph (Model PLYAN; Buxco, USA) immediately before and 30 min, 1, 2, and 3 h after carrageenan injection. The percent inhibition of paw edema was calculated using the following formula.
Percent inhibition I = 100 1− (a−x) / (b−y)
Where x is the mean paw volume of rats before the administration of carrageenan and test compounds or reference compound (test group), a is the mean paw volume of rats after the administration of carrageenan in the test group (drug treated), b is the mean paw volume of rats after the administration of carrageenan in the control group, y is the mean paw volume of rats before the administration of carrageenan in the control group.

[2] = system: Albino rats of Wistar strain; test: Evaluation of ulcerogenicity index (pylorus ligation); design: scale not given here; conditions: pylorus ligated on fourth day, mean ± SD (n = 6)
Method: The synthesized compounds were evaluated for analgesic, anti-inflammatory, and ulcerogenic index. […] The test compounds and the standard drugs were administered in the form of a suspension (1% carboxymethyl cellulose as a vehicle) by oral route for analgesic and anti-inflammatory but for ulcerogenicity studies by intraperitoneally as suspension in 10% v/v Tween-20. Each group consisted of six animals. The animals were procured from the C. L. Baid Metha College of pharmacy, Chennai, and were maintained in colony cages at 25 ±2°C, relative humidity of 45-55%, under a 12-h light and dark cycle; they were fed standard animal feed. All the animals were acclimatized for a week before use. The Institutional Animal Ethics Committee approved the protocol adopted for the experimentation of animals. Ulceration in rats was induced as described by Goyal et al. Albino rats of Wistar strain weighing 150-200 g of either sex were divided into various groups each of six animals.[16] Control group of animals was administered only with 10% v/v Tween 80 suspension intraperitonially. One group was administered with aspirin (German Remedies) intraperitoneally at a dose of 200 mg/kg once daily for 3 days. The remaining group of animals was administered with test compounds intraperitoneally at a dose of 20 mg/kg. On fourth day, Pylorus was ligated as per the method of Shay et al.[17] Animals were fasted for 36 h before the pylorus ligation procedure. Four hours after the ligation, animals were sacrificed. The stomach was removed and opened along with the greater curvature. Ulcer index was determined by the method of Ganguly and Bhatnagar.[18]

[3] = 10 mg/kg oral, 30 min after treatment
[4] = 10 mg/kg oral, 1 h after treatment
[5] = 10 mg/kg oral, 2 h after treatment
[6] = 10 mg/kg oral, 3 h after treatment
[7] = 20 mg/kg oral, 30 min after treatment
[8] = 20 mg/kg oral, 1 h after treatment
[9] = 20 mg/kg oral, 2 h after treatment
[10] = 20 mg/kg oral, 3 h after treatment
[11] = 10 mg/kg oral, 30 min after carrageenan
[12] = 10 mg/kg oral, 1 h after carrageenan
[13] = 10 mg/kg oral, 2 h after carrageenan
[14] = 10 mg/kg oral, 3 h after carrageenan
[15] = 20 mg/kg oral, 30 min after carrageenan
[16] = 20 mg/kg oral, 1 h after carrageenan
[17] = 20 mg/kg oral, 2 h after carrageenan
[18] = 20 mg/kg oral, 3 h after carrageenan
[19] = test compounds 20 mg/kg intraperitoneally

Compound | Percent analgesic activity (Wistar albino mice; [3]) | Percent analgesic activity (Wistar albino mice; [4]) | Percent analgesic activity (Wistar albino mice; [5]) | Percent analgesic activity (Wistar albino mice; [6]) | Percent analgesic activity (Wistar albino mice; [7]) | Percent analgesic activity (Wistar albino mice; [8]) | Percent analgesic activity (Wistar albino mice; [9]) | Percent analgesic activity (Wistar albino mice; [10]) | Percent anti-inflammatory activity (percent inhibition of paw edema) [1, 11] | Percent anti-inflammatory activity (percent inhibition of paw edema) [1, 12] | Percent anti-inflammatory activity (percent inhibition of paw edema) [1, 13] | Percent anti-inflammatory activity (percent inhibition of paw edema) [1, 14] | Percent anti-inflammatory activity (percent inhibition of paw edema) [1, 15] | Percent anti-inflammatory activity (percent inhibition of paw edema) [1, 16] | Percent anti-inflammatory activity (percent inhibition of paw edema) [1, 17] | Percent anti-inflammatory activity (percent inhibition of paw edema) [1, 18] | Ulcer index [2, 19] | Analgesic activity (in words) (Wistar albino mice) | other results
CCC(C)=Nc1ccc(N=C2C(=O)Nc3ccc(F)cc32)cc1 [Compound N1] | 47 ± 1.25 % | 51 ± 1.32 % | 53 ± 1.15 % | 31 ± 1.96 % | 54 ± 1.36 % | 58 ± 1.96 % | 60 ± 1.16 % | 47 ± 1.45 % | 39 ± 1.25 % | 45 ± 1.32 % | 52 ± 1.15 % | 32 ± 1.96 % | 44 ± 1.36 % | 52 ± 1.96 % | 58 ± 1.32 % | 37 ± 1.45 % | 0.84 ± 1.43 | – | –
O=C1Nc2ccc(F)cc2C1=Nc1ccc(N=Cc2ccc(O)cc2)cc1 [Compound N10] | 43 ± 1.55 % | 46 ± 1.72 % | 49 ± 1.52 % | 38 ± 1.92 % | 48 ± 1.56 % | 52 ± 1.96 % | 58 ± 1.16 % | 42 ± 1.43 % | 43 ± 1.55 % | 49 ± 1.72 % | 54 ± 1.52 % | 39 ± 1.92 % | 48 ± 1.56 % | 54 ± 1.65 % | 58 ± 1.16 % | 42 ± 1.43 % | 0.81 ± 1.18 | – | –
O=C1Nc2ccc(F)cc2C1=Nc1ccc(N=Cc2ccccc2)cc1 [Compound N6] | 37 ± 1.87 % | 46 ± 1.42 % | 49 ± 1.15 % | 36 ± 1.96 % | 49 ± 1.83 % | 54 ± 1.76 % | 59 ± 1.18 % | 43 ± 1.47 % | 37 ± 1.67 % | 42 ± 1.42 % | 49 ± 1.58 % | 36 ± 1.96 % | 46 ± 1.48 % | 55 ± 1.76 % | 59 ± 1.93 % | 38 ± 1.47 % | 0.84 ± 1.78 | decreasing activity | –
O=C1Nc2ccc(F)cc2C1=Nc1ccc(N=Cc2ccc(Cl)cc2)cc1 [Compound N9] | 42 ± 1.82 % | 44 ± 1.72 % | 48 ± 1.59 % | 38 ± 1.72 % | 46 ± 1.68 % | 51 ± 1.46 % | 57 ± 1.18 % | 45 ± 1.32 % | 38 ± 1.82 % | 44 ± 1.32 % | 48 ± 1.99 % | 38 ± 1.72 % | 46 ± 1.68 % | 51 ± 1.46 % | 57 ± 1.18 % | 45 ± 1.32 % | 0.75 ± 1.26 | decreasing activity | –
CCCC(C)=Nc1ccc(N=C2C(=O)Nc3ccc(F)cc32)cc1 [Compound N3] | 55 ± 1.75 % | 62 ± 1.82 % | 64 ± 1.35 % | 46 ± 1.96 % | 62 ± 1.59 % | 66 ± 1.77 % | 69 ± 1.24 % | 52 ± 1.45 % | 49 ± 1.75 % | 54 ± 1.82 % | 60 ± 1.35 % | 43 ± 1.96 % | 54 ± 1.59 % | 62 ± 1.77 % | 66 ± 1.24 % | 52 ± 1.45 % | 0.85 ± 1.28 | good activity | Anti-inflammatory activity compared to reference standard diclofenac sodium (in words) [1]: moderately more potent
O=C1Nc2ccc(F)cc2C1=Nc1ccc(N=Cc2ccc([N+](=O)[O-])cc2)cc1 [Compound N8] | 39 ± 1.75 % | 46 ± 1.43 % | 48 ± 1.24 % | 36 ± 1.36 % | 48 ± 1.46 % | 51 ± 1.92 % | 54 ± 1.16 % | 39 ± 1.48 % | 40 ± 1.65 % | 44 ± 1.53 % | 48 ± 1.74 % | 36 ± 1.36 % | 49 ± 1.46 % | 52 ± 1.92 % | 56 ± 1.16 % | 39 ± 1.48 % | 0.92 ± 1.45 | further decrease of activity | Anti-inflammatory activity compared to reference standard diclofenac sodium (in words) [1]: equipotent
CC(=O)Oc1ccccc1C(=O)O [Aspirin, aspirin, reference compound] | – | – | – | – | – | – | – | – | – | – | – | – | – | – | – | – | – | – | Ulcer index ([2]; aspirin 200 mg/kg intraperitoneally once daily for 3 days): 1.73 ± 0.39; Ulcer index ([2]; aspirin 200 mg/kg intraperitoneally once daily for 3 days, listed as aspirin): 1.73 ± 0.41

— PMC3021692, “Synthesis and Pharmacological Evaluation of Novel Schiff Base Analogues of 3-(4-amino) Phenylimino) 5-fluoroindolin-2-one” (Journal of Young Pharmacists : JYP, 2010)
